Data from patent US20250136607A1 (REGOR PHARMACEUTICALS, INC., priority 2021, published 2025).
Several values for one entry are separate records, joined by “and”; a condition that tells them apart may be missing. Identical values can stand only once.

target: Protein arginine deiminase 4 (PAD4) (Homo sapiens, UniProt Q9UM07); assay: PAD4 ammonia release assay; format: biochemical; conditions: PAD4 activity comparison; read-out: PAD4 Ammonia assay IC50
Procedure: 1) Compound preparation: The compounds were diluted to 80× final concentrations. 2) The compounds were transferred to a 384-well assay plate by Tecan. DMSO: 1.25%. 3) Preparation of 1×Assay buffer: 100 mM HEPES, PH=8.0, 2 mM CaCl2, 50 mM NaCl, 0.1 mM TCEP, 0.6 mg/ml BSA. 4) 2× enzyme working solution (PAD4:20 nM) was prepared with assay buffer, and 10 μL of the obtained working solution were added to the 384-well assay plates. 5) The plate was centrifuged at 1000 rpm for 1 min. 6) After the centrifuge, the plate was incubated at RT for 15 min. 7) 2×BAEE substrate mix (600 μM) was prepared with assay buffer and 10 μL of the obtained substrate mix were added to each well. 8) The plate was centrifuged at 1000 rpm for 1 min and then incubated at RT for 60 min. 9) 1.5× detection mix (DTT:4 mM, OPA:3 mM, EDTA: 30 mM) was prepared, and 10 μL of the mix were added to the plate. 10) The plate was centrifuged at 1000 rpm for 1 min and then incubated at RT for 120 min. 11) The 384-well plates were placed into the Envision (PerkinElmer) and the assay data were collected.
The percent (%) inhibition at each concentration of compound was calculated based on and relative to the signal in the HPE (50 μM ref. compound) and ZPE (1.25% DMSO) wells included within each assay plate. The HPE worked as 100% inhibition, and the ZPE worked as 0% inhibition. The concentrations and % inhibition values for tested compounds were plotted and the concentration of compound required for 50% inhibition (IC50) was determined with a Four-parameter logistic dose response equation. The endpoint value (IC50) for the reference compound was evaluated in each experiment as a quality control measure. If the endpoint value is within 3-fold of the expected value, then the experiment quality is deemed as acceptable. The results are provided in Table 1 below. ≤0.1 μM=“++++”; >0.1 and ≤0.5 μM=“+++”; >0.5 and ≤5.0 μM=“++”; >5.0 μM=“+”. “−”=not available.

Protein arginine deiminase 4 (PAD4), sequence (Q9UM07 whole entry): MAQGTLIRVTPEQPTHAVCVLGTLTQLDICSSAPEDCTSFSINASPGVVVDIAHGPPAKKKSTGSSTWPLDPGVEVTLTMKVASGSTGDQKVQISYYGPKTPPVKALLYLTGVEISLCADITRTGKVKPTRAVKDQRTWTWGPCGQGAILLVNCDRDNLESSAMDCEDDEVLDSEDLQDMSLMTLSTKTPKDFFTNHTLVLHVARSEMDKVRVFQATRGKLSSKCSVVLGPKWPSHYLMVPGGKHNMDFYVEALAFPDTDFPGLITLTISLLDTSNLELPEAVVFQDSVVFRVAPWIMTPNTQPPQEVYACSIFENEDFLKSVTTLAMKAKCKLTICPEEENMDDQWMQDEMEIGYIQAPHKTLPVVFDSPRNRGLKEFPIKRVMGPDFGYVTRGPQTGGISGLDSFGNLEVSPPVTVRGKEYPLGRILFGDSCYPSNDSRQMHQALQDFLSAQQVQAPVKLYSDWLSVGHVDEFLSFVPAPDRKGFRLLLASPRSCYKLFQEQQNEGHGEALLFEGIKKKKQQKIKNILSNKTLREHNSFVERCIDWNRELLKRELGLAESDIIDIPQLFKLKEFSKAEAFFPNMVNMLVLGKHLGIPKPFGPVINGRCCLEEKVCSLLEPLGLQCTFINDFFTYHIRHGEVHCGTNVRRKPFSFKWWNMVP

| IC50 | Structure (SMILES) |
| --- | --- |
| ~15.2 µM and 15.2 µM | Cn1c(-c2cc3cccc4c3n2CCO4)nc2cc(C(=O)N3CCC[C@@H](N)C3)ccc21 [A, reference compound] |
| 7.28 µM | CC1COc2cccc3cc(-c4nc5cc(C(=O)N6CCC[C@@H](N)C6)ccc5n4C)n1c23 (some centres unmarked) [B, reference compound] |

same assay, conditions: PAD4 ammonia release assay, BAEE substrate, 60 min at RT; read-out: Average IC50 Abs

| Structure (SMILES) | IC50 [µM] |
| --- | --- |
| COc1cc(C(=O)N2C[C@H](N)C[C@@H](F)C2)cc2nc(-c3cc4cccc5c4n3CCN5CCCNC(C)=O)n(C)c12 [Example 1, N-(3-(5-(5-((3R,5R)-3-amino-5-fluoropiperidine-1-carbonyl)-7-methoxy-1-methyl-1H-benzo[d]imidazol-82-yl)-2,3-dihydro-1H-pyrrolo[1,2,3-de]quinoxalin-1-yl)propyl)acetamide] | 0.5 to 5 |
| COc1cc(C(=O)N2CCC[C@@H](N)C2)cc2nc(-c3cc4cccc5c4n3CCN5CCCNC(C)=O)n(C)c12 [Example 3, (R)—N-(3-(5-(5-(3-aminopiperidine-1-carbonyl)-7-methoxy-1-methyl-1H-benzo[d]imidazol-2-yl)-2,3-dihydro-1H-pyrrolo[1,2,3-de]quinoxalin-1-yl)propyl)acetamide] | 0.5 to 5 |
| COc1cc(C(=O)N2C[C@H](N)C[C@@H](F)C2)cc2nc(-c3cc4cccc5c4n3CCN5CCCNC(=O)NC3CC3)n(C)c12 [Example 4, 1-(3-(5-(5-((3R,5R)-3-amino-5-fluoropiperidine-1-carbonyl)-7-methoxy-1-methyl-1H-benzo[d]imidazol-2-yl)-2,3-dihydro-1H-pyrrolo[1,2,3-de]quinoxalin-1-yl)propyl)-3-cyclopropylurea] | 0.5 to 5 |
| COc1cc(C(=O)N2CCC[C@@H](N)C2)cc2nc(-c3cc4cccc5c4n3CCN5CCCNC(=O)NC3CC3)n(C)c12 [Example 5, (R)-1-(3-(5-(5-(3-aminopiperidine-1-carbonyl)-7-methoxy-1-methyl-1H-benzo[d]imidazol-2-yl)-2,3-dihydro-1H-pyrrolo[1,2,3-de]quinoxalin-1-yl)propyl)-3-cyclopropylurea] | 0.5 to 5 |
| COc1cc(C(=O)N2C[C@H]3CC[C@@H]2[C@@H]3N)cc2nc(-c3cc4cccc5c4n3CCN5CCCNC(=O)NC3CC3)n(C)c12 [Example 6, 1-(3-(5-(5-((1R,4R,7R)-7-amino-2-azabicyclo[2.2.1]heptane-2-carbonyl)-7-methoxy-1-methyl-1H-benzo[d]imidazol-2-yl)-2,3-dihydro-1H-pyrrolo[1,2,3-de]quinoxalin-1-yl)propyl)-3-cyclopropylurea] | 0.5 to 5 |
| COc1cc(C(=O)N2CCC[C@@H](N)C2)cc2nc(-c3cc4cccc5c4n3CCN5CCCN)n(C)c12 [Example 7] | 0.5 to 5 |
| COc1cc(C(=O)N2CCC[C@@H](N)C2)cc2nc(-c3cc4cccc5c4n3CCC(=O)N5)n(C)c12 [Example 8, (R)-6-(5-(3-aminopiperidine-1-carbonyl)-7-methoxy-1-methyl-1H-benzo[d]imidazol-2-yl)-3,4-dihydro-[1,4]diazepino[3,2,1-hi]indol-2(1H)-one] | > 5 |
| COc1cc(C(=O)N2CCC[C@@H](N)C2)cc2nc(-c3cc4cccc5c4n3CC(=O)N5)n(C)c12 [Example 9, (R)-5-(5-(3-aminopiperidine-1-carbonyl)-7-methoxy-1-methyl-1H-benzo[d]imidazol-2-yl)-1H-pyrrolo[1,2,3-de]quinoxalin-2(3H)-one] | > 5 |
| COc1cc(C(=O)N2C[C@H]3CC[C@@H]2[C@@H]3N)cc2nc(-c3cc4cccc5c4n3CCN5CCO)n(C)c12 [Example 11, ((1R,4R,7R)-7-amino-2-azabicyclo[2.2.1]heptan-2-yl)(2-(1-(2-hydroxyethyl)-2,3-dihydro-1H-pyrrolo[1,2,3-de]quinoxalin-5-yl)-7-methoxy-1-methyl-1H-benzo[d]imidazol-5-yl)methanone] | 0.5 to 5 |
| COc1cc(C(=O)N2CC[C@@H](N)C2)cc2nc(-c3cc4cccc5c4n3CCN5CCCO)n(C)c12 [Example 15, (R)-(3-aminopyrrolidin-1-yl)(2-(1-(3-hydroxypropyl)-2,3-dihydro-1H-pyrrolo[1,2,3-de]quinoxalin-5-yl)-7-methoxy-1-methyl-1H-benzo[d]imidazol-5-yl)methanone] | > 5 |
| COc1cc(C(=O)N2CCC[C@@](C)(N)C2)cc2nc(-c3cc4cccc5c4n3CCN5CCCO)n(C)c12 [Example 16, (R)-(3-amino-3-methylpiperidin-1-yl)(2-(1-(3-hydroxypropyl)-2,3-dihydro-1H-pyrrolo[1,2,3-de]quinoxalin-5-yl)-7-methoxy-1-methyl-1H-benzo[d]imidazol-5-yl)methanone] | > 5 |
| COc1cc(C(=O)N2C[C@H](N)C[C@@H](C(F)(F)F)C2)cc2nc(-c3cc4cccc5c4n3CCN5CCCO)n(C)c12 [Example 17, ((3R,5R)-3-amino-5-(trifluoromethyl)piperidin-1-yl)(2-(1-(3-hydroxypropyl)-2,3-dihydro-1H-pyrrolo[1,2,3-de]quinoxalin-5-yl)-7-methoxy-1-methyl-1H-benzo[d]imidazol-5-yl)methanone] | > 5 |

Continued, values first:

| IC50 [µM] | Structure (SMILES) |
| --- | --- |
| ≤ 0.1 | Cn1c(-c2cc3cccc4c3n2C(C2CC2)CN4)nc2cc(C(=O)N3C[C@H]4CC[C@@H]3[C@@H]4N)cc(F)c21 (mixture of isomers) [Example 108, ((1R,4R,7R)-7-amino-2-azabicyclo[2.2.1]heptan-2-yl)(2-(3-cyclopropyl-2,3-dihydro-1H-pyrrolo[1,2,3-de]quinoxalin-5-yl)-7-fluoro-1-methyl-1H-benzo[d]imidazol-5-yl)methanone] |
| 0.5 to 5 | Cn1c(-c2cc3cccc4c3n2[C@H](C2CC2)CN4)nc2cc(C(=O)N3C[C@H]4CC[C@@H]3[C@@H]4N)cc(F)c21 (single isomer, unassigned) [Example 109] |
| 0.5 to 5 | Cn1c(-c2cc3cccc4c3n2[C@H](C2CC2)CN4CCCO)nc2cc(C(=O)N3C[C@H]4CC[C@@H]3[C@@H]4N)cc(F)c21 (single isomer, unassigned) [Example 113] |
| 0.5 to 5 | Cn1c(-c2cc3ccc(C#N)c4c3n2[C@H](C2CC2)CN4)nc2cc(C(=O)N3C[C@H]4CC[C@@H]3[C@@H]4N)cc(F)c21 (single isomer, unassigned) [Example 116] |
| > 5 | CC[C@@H]1[C@H](C)Nc2cccc3cc(-c4nc5cc(C(=O)N6C[C@H]7CC[C@@H]6[C@@H]7N)cc(F)c5n4C)n1c23 (single isomer, unassigned) [Example 133] |
| 0.5 to 5 | COc1cc(C(=O)N2C[C@H](N)CC(F)(F)C2)cc2nc(-c3cc4cccc5c4n3CCN5CCCO)n(C)c12 [Example 18, (R)-(5-amino-3,3-difluoropiperidin-1-yl)(2-(1-(3-hydroxypropyl)-2,3-dihydro-1H-pyrrolo[1,2,3-de]quinoxalin-5-yl)-7-methoxy-1-methyl-1H-benzo[d]imidazol-5-yl)methanone] |
| > 5 | COc1cc(C(=O)N2CCC[C@](C)(N)C2)cc2nc(-c3cc4cccc5c4n3CCN5CCCO)n(C)c12 [Example 19, (S)-(3-amino-3-methylpiperidin-1-yl)(2-(1-(3-hydroxypropyl)-2,3-dihydro-1H-pyrrolo[1,2,3-de]quinoxalin-5-yl)-7-methoxy-1-methyl-1H-benzo[d]imidazol-5-yl)methanone] |
| 0.5 to 5 | COc1cc(C(=O)N2CC[C@@H](F)[C@@H](N)C2)cc2nc(-c3cc4cccc5c4n3CCN5CCCO)n(C)c12 [Example 20, ((3S,4R)-3-amino-4-fluoropiperidin-1-yl)(2-(1-(3-hydroxypropyl)-2,3-dihydro-1H-pyrrolo[1,2,3-de]quinoxalin-5-yl)-7-methoxy-1-methyl-1H-benzo[d]imidazol-5-yl)methanone] |
| 0.5 to 5 | COCCCN1CCn2c(-c3nc4cc(C(=O)N5CCC[C@@H](N)C5)cc(OC)c4n3C)cc3cccc1c32 [Example 21, (R)-(3-aminopiperidin-1-yl)(7-methoxy-2-(1-(3-methoxypropyl)-2,3-dihydro-1H-pyrrolo[1,2,3-de]quinoxalin-5-yl)-1-methyl-1H-benzo[d]imidazol-5-yl)methanone] |
| 0.1 to 0.5 | COc1cc(C(=O)N2C[C@H](N)C[C@@H](F)C2)cc2nc(-c3cc4cccc5c4n3CCN5CCOCCO)n(C)c12 [Example 22, ((3R,5R)-3-amino-5-fluoropiperidin-1-yl)(2-(1-(2-(2-hydroxyethoxy)ethyl)-2,3-dihydro-1H-pyrrolo[1,2,3-de]quinoxalin-5-yl)-7-methoxy-1-methyl-1H-benzo[d]imidazol-5-yl)methanone] |
| > 5 | COc1cc(C(=O)N2CCC[C@@H](N)C2)cc2nc(-c3cc4cccc5c4n3CCN5Cc3ccccc3)n(C)c12 [Example 24, (R)-(3-aminopiperidin-1-yl)(2-(1-benzyl-2,3-dihydro-1H-pyrrolo[1,2,3-de]quinoxalin-5-yl)-7-methoxy-1-methyl-1H-benzo[d]imidazol-5-yl)methanone] |
| > 5 | COc1cc(C(=O)N2CCC[C@@H](N)C2)cc2nc(-c3cc4cccc5c4n3CCN5C)n(C)c12 [Example 25] |
